This is an account of results in patent US20250059180A1 (DONG WHA PHARM. CO., LTD., priority 2022, published 2025).

Bounds are passed on as bounds.

The test concerns Pfeiffer cells, lymphoma cells having EZH2 mutation (A677G). Briefly: Proliferation inhibition of cells of hematologic malignancies (CCK-8, 11 days). The test is classed as cell-based. Particulars: Homo sapiens, Pfeiffer, 264 h, 11 days culture, read-out: Cell proliferation inhibitory effect (IC50). The essentials:
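Pfeiffer lymphoma cells (EZH2 A677G) in RPMI1640 with 10% FBS were seeded at 10,000 cells/well and exposed to test material for 11 days, with compound replaced every 3–4 days. Viability was read by CCK-8 absorbance at 450 nm, and IC50 was derived by non-linear regression curve fitting.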

For the compound `COCCN(C)[C@H]1CC[C@H](C2(C)Oc3c(-c4cnc(N5C[C@@H](C)O[C@@H](C)C5)nc4)cc(C(=O)NCc4c(SC)cc(C)[nH]c4=O)c(C)c3O2)CC1` (stereo partly drawn) [Compound 25, 7-(2-((2S,6R)-2,6-dimethylmorpholino)pyrimidin-5-yl)-2-(trans-4-((2-methoxyethyl)(methyl)amino)cyclohexyl)-2,4-dimethyl-N-((6-methyl-4-(methylthio)-2-oxo-1,2-dihydropyridin-3-yl)methyl)benzo[d][1,3]dioxole-5-carboxamide], the IC50 is not above 0.01 µM.

As to `COCCN(C)[C@H]1CC[C@H](C2(C)Oc3c(-c4cnc(N(C)C)nc4)cc(C(=O)NCc4c(SC)cc(C)[nH]c4=O)c(C)c3O2)CC1` (stereo partly drawn) [Compound 26, 7-(2-(dimethylamino)pyrimidin-5-yl)-2-(trans-4-((2-methoxyethyl)(methyl)amino)cyclohexyl)-2,4-dimethyl-N-((6-methyl-4-(methylthio)-2-oxo-1,2-dihydropyridin-3-yl)methyl)benzo[d][1,3]dioxole-5-carboxamide], the IC50 was not above 0.01 µM.

Regarding `COCCN(C)[C@H]1CC[C@H](C2(C)Oc3c(-c4ccc(N5CCC(F)(F)CC5)nc4)cc(C(=O)NCc4c(SC)cc(C)[nH]c4=O)c(C)c3O2)CC1` (stereo partly drawn) [Compound 27, 7-(6-(4,4-difluoropiperidin-1-yl)pyridin-3-yl)-2-(trans-4-((2-methoxyethyl)(methyl)amino)cyclohexyl)-2,4-dimethyl-N-((6-methyl-4-(methylthio)-2-oxo-1,2-dihydropyridin-3-yl)methyl)benzo[d][1,3]dioxole-5-carboxamide], the IC50 is not above 0.01 µM.

Take `COCCN(C)[C@H]1CC[C@H](C2(C)Oc3c(-c4ccc(OC)nc4)cc(C(=O)NCc4c(SC)cc(C)[nH]c4=O)c(C)c3O2)CC1` (stereo partly drawn) [Compound 28, 2-(trans-4-((2-methoxyethyl)(methyl)amino)cyclohexyl)-7-(6-methoxypyridin-3-yl)-2,4-dimethyl-N-((6-methyl-4-(methylthio)-2-oxo-1,2-dihydropyridin-3-yl)methyl)benzo[d][1,3]dioxole-5-carboxamide]: the IC50 is not above 0.01 µM.

Turning to `CSc1cc(C)[nH]c(=O)c1CNC(=O)c1cc(-c2ccc(N3C[C@@H](C)O[C@@H](C)C3)nc2)c2c(c1C)OC(C)([C@H]1CC[C@H](N(C)C[C@H](C)O)CC1)O2` (stereo partly drawn) [Compound 29, 7-(6-((2S,6R)-2,6-dimethylmorpholino)pyridin-3-yl)-2-(trans-4-(((S)-2-hydroxypropyl)(methyl)amino)cyclohexyl)-2,4-dimethyl-N-((6-methyl-4-(methylthio)-2-oxo-1,2-dihydropyridin-3-yl)methyl)benzo[d][1,3]dioxole-5-carboxamide], the IC50 is not above 0.01 µM.

With `CCCOCCN(C)[C@H]1CC[C@H](C2(C)Oc3c(-c4ccc(N5C[C@@H](C)O[C@@H](C)C5)nc4)cc(C(=O)NCc4c(SC)cc(C)[nH]c4=O)c(C)c3O2)CC1` (stereo partly drawn) [Compound 30, 7-(6-((2S,6R)-2,6-dimethylmorpholino)pyridin-3-yl)-2,4-dimethyl-2-(trans-4-(methyl(2-propoxyethyl)amino)cyclohexyl)-N-((6-methyl-4-(methylthio)-2-oxo-1,2-dihydropyridin-3-yl)methyl)benzo[d][1,3]dioxole-5-carboxamide], the IC50 is not above 0.01 µM.

As to `COC(CN(C)[C@H]1CC[C@H](C2(C)Oc3c(-c4ccc(N5C[C@@H](C)O[C@@H](C)C5)nc4)cc(C(=O)NCc4c(SC)cc(C)[nH]c4=O)c(C)c3O2)CC1)OC` (stereo partly drawn) [Compound 31, 2-(trans-4-((2,2-dimethoxyethyl)(methyl)amino)cyclohexyl)-7-(6-((2S,6R)-2,6-dimethylmorpholino)pyridin-3-yl)-2,4-dimethyl-N-((6-methyl-4-(methylthio)-2-oxo-1,2-dihydropyridin-3-yl)methyl)benzo[d][1,3]dioxole-5-carboxamide], the IC50 is not above 0.01 µM.

As for `CSc1cc(C)[nH]c(=O)c1CNC(=O)c1cc(-c2ccc(N3C[C@@H](C)O[C@@H](C)C3)nc2)c2c(c1C)OC(C)([C@H]1CC[C@H](N(C)CC3OCCO3)CC1)O2` (stereo partly drawn) [Compound 32, 2-(trans-4-(((1,3-dioxolan-2-yl)methyl)(methyl)amino)cyclohexyl)-7-(6-((2S,6R)-2,6-dimethylmorpholino)pyridin-3-yl)-2,4-dimethyl-N-((6-methyl-4-(methylthio)-2-oxo-1,2-dihydropyridin-3-yl)methyl)benzo[d][1,3]dioxole-5-carboxamide], the IC50 was not above 0.01 µM.

As for `CSc1cc(C)[nH]c(=O)c1CNC(=O)c1cc(-c2ccc(N3C[C@@H](C)O[C@@H](C)C3)nc2)c2c(c1C)OC(C)(C1CCN(CC(F)(F)F)CC1)O2` (stereo partly drawn) [Compound 33, 7-(6-((2S,6R)-2,6-dimethylmorpholino)pyridin-3-yl)-2,4-dimethyl-N-((6-methyl-4-(methylthio)-2-oxo-1,2-dihydropyridin-3-yl)methyl)-2-(1-(2,2,2-trifluoroethyl)piperidin-4-yl)benzo[d][1,3]dioxole-5-carboxamide], the IC50 is not above 0.01 µM.

Take `CSc1cc(C)[nH]c(=O)c1CNC(=O)c1cc(-c2ccc(N3CCSCC3)nc2)c2c(c1C)OC(C)(C1CCN(CC(F)(F)F)CC1)O2` (stereo not shown) [Compound 34, 2,4-dimethyl-N-((6-methyl-4-(methylthio)-2-oxo-1,2-dihydropyridin-3-yl)methyl)-7-(6-thiomorpholinopyridin-3-yl)-2-(1-(2,2,2-trifluoroethyl)piperidin-4-yl)benzo[d][1,3]dioxole-5-carboxamide]: the IC50 was not above 0.01 µM.

In the case of `CSc1cc(C)[nH]c(=O)c1CNC(=O)c1cc(-c2cnc(N(C)C)nc2)c2c(c1C)OC(C)(C1CCN(CC(F)(F)F)CC1)O2` (stereo not shown) [Compound 35, 7-(2-(dimethylamino)pyrimidin-5-yl)-2,4-dimethyl-N-((6-methyl-4-(methylthio)-2-oxo-1,2-dihydropyridin-3-yl)methyl)-2-(1-(2,2,2-trifluoroethyl)piperidin-4-yl)benzo[d][1,3]dioxole-5-carboxamide], the IC50 is not above 0.01 µM.

Consider `COc1ccc(-c2cc(C(=O)NCc3c(SC)cc(C)[nH]c3=O)c(C)c3c2OC(C)(C2CCN(CC(F)(F)F)CC2)O3)cn1` (stereo not shown) [Compound 36, 7-(6-methoxypyridin-3-yl)-2,4-dimethyl-N-((6-methyl-4-(methylthio)-2-oxo-1,2-dihydropyridin-3-yl)methyl)-2-(1-(2,2,2-trifluoroethyl)piperidin-4-yl)benzo[d][1,3]dioxole-5-carboxamide], for which the IC50 is not above 0.01 µM.

Take `CSc1cc(C)[nH]c(=O)c1CNC(=O)c1cc(-c2ccc(N3CC(C)CC(C)C3)nc2)c2c(c1C)OC(C)(C1CCN(CC(F)(F)F)CC1)O2` (stereo not shown) [Compound 37, 7-(6-(3,5-dimethylpiperidin-1-yl)pyridin-3-yl)-2,4-dimethyl-N-((6-methyl-4-(methylthio)-2-oxo-1,2-dihydropyridin-3-yl)methyl)-2-(1-(2,2,2-trifluoroethyl)piperidin-4-yl)benzo[d][1,3]dioxole-5-carboxamide]: the IC50 was 0.01 to 0.1 µM.

As for `CSc1cc(C)[nH]c(=O)c1CNC(=O)c1cc(-c2cnc(N3C[C@@H](C)O[C@@H](C)C3)nc2)c2c(c1C)OC(C)(C1CCN(CC(F)(F)F)CC1)O2` (stereo partly drawn) [Compound 38, 7-(2-((2S,6R)-2,6-dimethylmorpholino)pyrimidin-5-yl)-2,4-dimethyl-N-((6-methyl-4-(methylthio)-2-oxo-1,2-dihydropyridin-3-yl)methyl)-2-(1-(2,2,2-trifluoroethyl)piperidin-4-yl)benzo[d][1,3]dioxole-5-carboxamide], the IC50 is not above 0.01 µM.

Regarding `CSc1cc(C)[nH]c(=O)c1CNC(=O)c1cc(-c2cnc(N3CCCCC3)nc2)c2c(c1C)OC(C)(C1CCN(CC(F)(F)F)CC1)O2` (stereo not shown) [Compound 39, 2,4-dimethyl-N-((6-methyl-4-(methylthio)-2-oxo-1,2-dihydropyridin-3-yl)methyl)-7-(2-(piperidin-1-yl)pyrimidin-5-yl)-2-(1-(2,2,2-trifluoroethyl)piperidin-4-yl)benzo[d][1,3]dioxole-5-carboxamide], the IC50 was not above 0.01 µM.

Consider `CSc1cc(C)[nH]c(=O)c1CNC(=O)c1cc(-c2ccc(N3C[C@@H](C)O[C@@H](C)C3)nc2)c2c(c1C)OC(C)(C1CCN(C[C@H](C)O)CC1)O2` (stereo partly drawn) [Compound 40, 7-(6-((2S,6R)-2,6-dimethylmorpholino)pyridin-3-yl)-2-(1-((S)-2-hydroxypropyl)piperidin-4-yl)-2,4-dimethyl-N-((6-methyl-4-(methylthio)-2-oxo-1,2-dihydropyridin-3-yl)methyl)benzo[d][1,3]dioxole-5-carboxamide], for which the IC50 is not above 0.01 µM.

`COC(CN1CCC(C2(C)Oc3c(-c4ccc(N5C[C@@H](C)O[C@@H](C)C5)nc4)cc(C(=O)NCc4c(SC)cc(C)[nH]c4=O)c(C)c3O2)CC1)OC` (stereo partly drawn) [Compound 41, 2-(1-(2,2-dimethoxyethyl)piperidin-4-yl)-7-(6-((2S,6R)-2,6-dimethylmorpholino)pyridin-3-yl)-2,4-dimethyl-N-((6-methyl-4-(methylthio)-2-oxo-1,2-dihydropyridin-3-yl)methyl)benzo[d][1,3]dioxole-5-carboxamide]: the IC50 was not above 0.01 µM.

In the case of `CSc1cc(C)[nH]c(=O)c1CNC(=O)c1cc(-c2ccsc2)c2c(c1C)OC(C)(C1CCC(N(C)C)CC1)O2` (stereo not shown) [Compound 42, 2-(4-(dimethylamino)cyclohexyl)-2,4-dimethyl-N-((6-methyl-4-(methylthio)-2-oxo-1,2-dihydropyridin-3-yl)methyl)-7-(thiophen-3-yl)benzo[d][1,3]dioxole-5-carboxamide], the IC50 was not above 0.01 µM.

As to `CSc1cc(C)[nH]c(=O)c1CNC(=O)c1cc(-c2ccc(N3C[C@@H](C)O[C@@H](C)C3)nc2)c2c(c1C)OC(C)(C1CCN(CC(F)F)CC1)O2` (stereo partly drawn) [Compound 46, 2-(1-(2,2-difluoroethyl)piperidin-4-yl)-7-(6-((2S,6R)-2,6-dimethylmorpholino)pyridin-3-yl)-2,4-dimethyl-N-((6-methyl-4-(methylthio)-2-oxo-1,2-dihydropyridin-3-yl)methyl)benzo[d][1,3]dioxole-5-carboxamide], the IC50 was not above 0.01 µM.
